In US20240374581A1, “SALT TYPES OF TRICYCLIC TETRAHYDRO ISOQUINOLINE DERIVATIVE” (JIANGSU HENGRUI PHARMACEUTICALS CO., LTD., priority 2021, published 2024):

Experiments:
[1] = Long-term/accelerated stability; format: physicochemical; conditions: for Crystal form: up to 3 months; for physical and chemical stability (conclusion): long-term/accelerated study for 3 months
[2] = Hygroscopicity study (DVS); format: physicochemical; conditions: 25° C.; for Hygroscopicity grade: 0% RH-80.0% RH; for Hygroscopicity 0% RH-80.0% RH / Hygroscopicity 0.0% RH-95.0% RH: DVS
Method: DVS refers to dynamic vapor sorption: The measurement was conducted on SMS DVS Advantage; at 25° C., the humidity was changed as follows: 50%-95%-0%-95%-50%, in steps of 10% (5% for the last step) (specific humidity ranges are shown in corresponding patterns, and those listed here were used in most cases); the criterion was dm/dt≤0.002%.
The measurement was conducted with a Surface Measurement Systems intrinsic at 25° C., starting from 50% humidity in humidity range of 0%-95%, in steps of 10%; the criterion was dM/dT≤0.002% and TMAX of 360 min in two cycles.

[3] = Influencing factor stability study; conditions: for physical and chemical stability (conclusion): influencing factors

O=S(=O)(O)O.[2H]C1([2H])Oc2cc3c(cc2O1)[C@@H](c1ccc(NC2CN(CCCF)C2)cn1)N(CC(F)(F)CO)[C@H](C)C3 [Crystal form A of sulfate]
Purity (%) 1 month ([1]; 25° C./60% RH): 98.9%
Purity (%) 2 months ([1]; 25° C./60% RH): 98.7%
Purity (%) 3 months ([1]; 25° C./60% RH): 98.8%
Purity (%) 7 days ([1]; 25° C./60% RH): 99.0%
Purity (%) 14 days ([1]; 25° C./60% RH): 98.9%
Purity (%) Initial ([1]; 25° C./60% RH): 98.9%
Crystal form ([1]; 25° C./60% RH): Unchanged
Purity (%) 1 month ([1]; 40° C./75% RH): 98.7%
Purity (%) 2 months ([1]; 40° C./75% RH): 98.2%
Purity (%) 3 months ([1]; 40° C./75% RH): 98.1%
Purity (%) 7 days ([1]; 40° C./75% RH): 99.2%
Purity (%) 14 days ([1]; 40° C./75% RH): 98.9%
Purity (%) Initial ([1]; 40° C./75% RH): 98.9%
Crystal form ([1]; 40° C./75% RH): Unchanged
physical and chemical stability (conclusion) [1]: good physical and chemical stability
Hygroscopicity grade [2]: hygroscopic
Crystal form after DVS [2]: Deliquescence
Hygroscopicity 0% RH-80.0% RH [2]: 13.3%
Hygroscopicity 0.0% RH-95.0% RH [2]: 44.1%
Crystal form after DVS ([2]; listed as crystal form A): deliquesced
Crystal form ([3]; 40° C., 1 month): Crystal form A
Purity (%) ([3]; 40° C., 1 month): 98.0%
Crystal form ([3]; 40° C., 5 days): Crystal form A
Purity (%) ([3]; 40° C., 5 days): 98.8%
Crystal form ([3]; 40° C., 10 days): Crystal form A
Purity (%) ([3]; 40° C., 10 days): 98.7%
Crystal form ([3]; 60° C., 1 month): Crystal form A
Purity (%) ([3]; 60° C., 1 month): 97.3%
Crystal form ([3]; 60° C., 5 days): Crystal form A
Purity (%) ([3]; 60° C., 5 days): 98.7%
Crystal form ([3]; 60° C., 10 days): Crystal form A
Purity (%) ([3]; 60° C., 10 days): 98.6%
behaviour under the high-humidity conditions (conclusion) ([3]; 75% RH and 92.5% RH, 30 days): deliquesced
Crystal form ([3]; 75% RH, 1 month): Deliquescence
Purity (%) ([3]; 75% RH, 1 month): 94.8%
Crystal form ([3]; 75% RH, 5 days): Deliquescence
Purity (%) ([3]; 75% RH, 5 days): 97.8%
Crystal form ([3]; 75% RH, 10 days): Deliquescence
Purity (%) ([3]; 75% RH, 10 days): 96.6%
Crystal form ([3]; 92.5% RH, 1 month): Deliquescence
Purity (%) ([3]; 92.5% RH, 1 month): 95.1%
Crystal form ([3]; 92.5% RH, 5 days): Deliquescence
Purity (%) ([3]; 92.5% RH, 5 days): 98.1%
Crystal form ([3]; 92.5% RH, 10 days): Deliquescence
Purity (%) ([3]; 92.5% RH, 10 days): 97.3%
Crystal form ([3]; 4500 Lux, 1 month): Crystal form A
Purity (%) ([3]; 4500 Lux, 1 month): 92.9%
Crystal form ([3]; 4500 Lux, 5 days): Crystal form A
Purity (%) ([3]; 4500 Lux, 5 days): 97.4%
Crystal form ([3]; 4500 Lux, 10 days): Crystal form A
Purity (%) ([3]; 4500 Lux, 10 days): 96.0%
Crystal form ([3]; Initial, 0 days): Crystal form A
Purity (%) ([3]; Initial, 0 days): 98.9%
physical and chemical stability (conclusion) ([3]; 30 days): good physical and chemical stability under other conditions except the lighting condition

O=P(O)(O)O.O=P(O)(O)O.O=P(O)(O)O.[2H]C1([2H])Oc2cc3c(cc2O1)[C@@H](c1ccc(NC2CN(CCCF)C2)cn1)N(CC(F)(F)CO)[C@H](C)C3 [Crystal form I of phosphate]
Purity (%) 1 month ([1]; 25° C./60% RH): 99.3%
Purity (%) 2 months ([1]; 25° C./60% RH): 99.3%
Purity (%) 3 months ([1]; 25° C./60% RH): 99.2%
Purity (%) 7 days ([1]; 25° C./60% RH): 99.4%
Purity (%) 14 days ([1]; 25° C./60% RH): 99.5%
Purity (%) Initial ([1]; 25° C./60% RH): 99.4%
Crystal form ([1]; 25° C./60% RH): Unchanged
Purity (%) 1 month ([1]; 40° C./75% RH): 99.3%
Purity (%) 2 months ([1]; 40° C./75% RH): 99.2%
Purity (%) 3 months ([1]; 40° C./75% RH): 99.0%
Purity (%) 7 days ([1]; 40° C./75% RH): 99.5%
Purity (%) 14 days ([1]; 40° C./75% RH): 99.5%
Purity (%) Initial ([1]; 40° C./75% RH): 99.4%
Crystal form ([1]; 40° C./75% RH): Unchanged
physical and chemical stability (conclusion) [1]: good physical and chemical stability
Hygroscopicity grade [2]: slightly
Crystal form after DVS [2]: Did not change
Hygroscopicity 0% RH-80.0% RH [2]: 1.2%
Hygroscopicity 0.0% RH-95.0% RH [2]: 7.1%
Crystal form after DVS ([2]; listed as crystal form I): did not change
Crystal form ([3]; 40° C., 1 month): Crystal form I
Purity (%) ([3]; 40° C., 1 month): 99.1%
Crystal form ([3]; 40° C., 5 days): Crystal form I
Purity (%) ([3]; 40° C., 5 days): 99.3%
Crystal form ([3]; 40° C., 10 days): Crystal form I
Purity (%) ([3]; 40° C., 10 days): 99.1%
Crystal form ([3]; 60° C., 1 month): Crystal form I
Purity (%) ([3]; 60° C., 1 month): 98.8%
Crystal form ([3]; 60° C., 5 days): Crystal form I
Purity (%) ([3]; 60° C., 5 days): 99.1%
Crystal form ([3]; 60° C., 10 days): Crystal form I
Purity (%) ([3]; 60° C., 10 days): 99.1%
Crystal form ([3]; 75% RH, 1 month): Crystal form I
Purity (%) ([3]; 75% RH, 1 month): 99.4%
Crystal form ([3]; 75% RH, 5 days): Crystal form I
Purity (%) ([3]; 75% RH, 5 days): 99.3%
Crystal form ([3]; 75% RH, 10 days): Crystal form I
Purity (%) ([3]; 75% RH, 10 days): 99.4%
Crystal form ([3]; 92.5% RH, 1 month): Crystal form I
Purity (%) ([3]; 92.5% RH, 1 month): 99.3%
Crystal form ([3]; 92.5% RH, 5 days): Crystal form I
Purity (%) ([3]; 92.5% RH, 5 days): 99.3%
Crystal form ([3]; 92.5% RH, 10 days): Crystal form I
Purity (%) ([3]; 92.5% RH, 10 days): 99.3%
Crystal form ([3]; 4500 Lux, 1 month): Crystal form I
Purity (%) ([3]; 4500 Lux, 1 month): 98.4%
Crystal form ([3]; 4500 Lux, 5 days): Crystal form I
Purity (%) ([3]; 4500 Lux, 5 days): 98.9%
Crystal form ([3]; 4500 Lux, 10 days): Crystal form I
Purity (%) ([3]; 4500 Lux, 10 days): 98.8%
Crystal form ([3]; Initial, 0 days): Crystal form I
Purity (%) ([3]; Initial, 0 days): 99.4%
physical and chemical stability (conclusion) ([3]; 30 days): good physical and chemical stability
